Structures are written as SMILES.

This is an account of results in patent US8921376B2, “Pyrrolopyridines useful as inhibitors of protein kinase” (Vertex Pharmaceuticals Incorporated, priority 2005, dated 2014).

Common to all, as to format: biochemical
One test addresses ROCK I (Homo sapiens, UniProt Q13464). Kind of test: ROCK-I inhibition assay (radioactive enzyme assay, MBP substrate). Put shortly: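 Human ROCK at 5 nM phosphorylated 27 μM myelin basic protein with 13 μM [γ-33P]ATP (final) in HEPES pH 7.5, MgCl2, NaCl, DTT and 1.5% DMSO. Reactions ran 2 h at room temperature before TCA quench and filter-plate scintillation counting. After background subtraction, data were fit to give Ki(app).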

For another test, the target named is JAK2 (Homo sapiens, UniProt O60674). The test can be described thus: JAK2 inhibition assay (as Example 3 with JAK-2 enzyme). Put shortly: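 In HEPES pH 7.4 buffer with 10 mM MgCl2, 1 mM DTT, 25 mM NaCl and 0.01% BSA, JAK2 enzyme phosphorylated poly(Glu)4Tyr (final 15 μM) using 33P-ATP (final 12 μM) for 20 min at room temperature (25 °C). Reactions stopped with TCA; incorporated 33P measured by scintillation after filtration.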

Another test has as its target T1, JAK3 (Homo sapiens, UniProt P52333).
T1 sequence (P52333 1-1124): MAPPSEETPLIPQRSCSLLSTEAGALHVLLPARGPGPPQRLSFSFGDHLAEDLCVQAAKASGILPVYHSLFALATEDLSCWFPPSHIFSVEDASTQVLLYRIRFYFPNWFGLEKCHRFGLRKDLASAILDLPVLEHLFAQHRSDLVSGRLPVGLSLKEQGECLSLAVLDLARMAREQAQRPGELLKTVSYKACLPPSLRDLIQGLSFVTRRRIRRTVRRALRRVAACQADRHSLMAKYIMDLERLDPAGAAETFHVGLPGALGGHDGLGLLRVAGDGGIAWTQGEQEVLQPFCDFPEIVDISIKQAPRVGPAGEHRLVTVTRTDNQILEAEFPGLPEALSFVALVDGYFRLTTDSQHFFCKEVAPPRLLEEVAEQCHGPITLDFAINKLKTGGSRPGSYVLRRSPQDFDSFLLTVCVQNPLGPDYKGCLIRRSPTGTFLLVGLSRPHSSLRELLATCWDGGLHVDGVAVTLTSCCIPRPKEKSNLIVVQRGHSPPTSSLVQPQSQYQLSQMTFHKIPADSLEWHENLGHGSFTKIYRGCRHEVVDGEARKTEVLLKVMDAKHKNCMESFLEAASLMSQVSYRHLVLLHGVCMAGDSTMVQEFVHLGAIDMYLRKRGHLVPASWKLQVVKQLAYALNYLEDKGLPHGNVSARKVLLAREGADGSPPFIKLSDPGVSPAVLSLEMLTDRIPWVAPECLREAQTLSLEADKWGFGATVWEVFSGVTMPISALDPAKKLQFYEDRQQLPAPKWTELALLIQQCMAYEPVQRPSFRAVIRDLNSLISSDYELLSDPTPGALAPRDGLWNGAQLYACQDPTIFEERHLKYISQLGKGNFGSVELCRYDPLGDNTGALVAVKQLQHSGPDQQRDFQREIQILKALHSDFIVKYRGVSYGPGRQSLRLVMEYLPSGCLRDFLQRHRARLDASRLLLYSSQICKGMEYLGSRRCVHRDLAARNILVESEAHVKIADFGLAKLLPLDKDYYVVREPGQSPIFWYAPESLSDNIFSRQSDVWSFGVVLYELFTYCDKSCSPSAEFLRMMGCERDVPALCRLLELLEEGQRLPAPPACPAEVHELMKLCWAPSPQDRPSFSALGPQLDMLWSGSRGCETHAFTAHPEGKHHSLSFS
The test can be described thus: JAK3 inhibition assay (33P incorporation into poly(Glu)4Tyr). Put shortly:
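After TCA quench and filter harvest, scintillation counting of 33P measured phosphorylation of poly(Glu)4Tyr (1 μM) by 1 nM JAK3. The 20-min, 25° C. reaction contained 5 μM ATP (200 μCi/μmole) in pH 7.4 HEPES buffer with 10 mM MgCl2.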

Where [1] appears, read: Table 6, enzyme inhibition data (Ki).
The mark [2] stands for this setting: enzyme inhibition, Ki(app), Table 5.

Sequence of JAK2 (O60674 whole entry): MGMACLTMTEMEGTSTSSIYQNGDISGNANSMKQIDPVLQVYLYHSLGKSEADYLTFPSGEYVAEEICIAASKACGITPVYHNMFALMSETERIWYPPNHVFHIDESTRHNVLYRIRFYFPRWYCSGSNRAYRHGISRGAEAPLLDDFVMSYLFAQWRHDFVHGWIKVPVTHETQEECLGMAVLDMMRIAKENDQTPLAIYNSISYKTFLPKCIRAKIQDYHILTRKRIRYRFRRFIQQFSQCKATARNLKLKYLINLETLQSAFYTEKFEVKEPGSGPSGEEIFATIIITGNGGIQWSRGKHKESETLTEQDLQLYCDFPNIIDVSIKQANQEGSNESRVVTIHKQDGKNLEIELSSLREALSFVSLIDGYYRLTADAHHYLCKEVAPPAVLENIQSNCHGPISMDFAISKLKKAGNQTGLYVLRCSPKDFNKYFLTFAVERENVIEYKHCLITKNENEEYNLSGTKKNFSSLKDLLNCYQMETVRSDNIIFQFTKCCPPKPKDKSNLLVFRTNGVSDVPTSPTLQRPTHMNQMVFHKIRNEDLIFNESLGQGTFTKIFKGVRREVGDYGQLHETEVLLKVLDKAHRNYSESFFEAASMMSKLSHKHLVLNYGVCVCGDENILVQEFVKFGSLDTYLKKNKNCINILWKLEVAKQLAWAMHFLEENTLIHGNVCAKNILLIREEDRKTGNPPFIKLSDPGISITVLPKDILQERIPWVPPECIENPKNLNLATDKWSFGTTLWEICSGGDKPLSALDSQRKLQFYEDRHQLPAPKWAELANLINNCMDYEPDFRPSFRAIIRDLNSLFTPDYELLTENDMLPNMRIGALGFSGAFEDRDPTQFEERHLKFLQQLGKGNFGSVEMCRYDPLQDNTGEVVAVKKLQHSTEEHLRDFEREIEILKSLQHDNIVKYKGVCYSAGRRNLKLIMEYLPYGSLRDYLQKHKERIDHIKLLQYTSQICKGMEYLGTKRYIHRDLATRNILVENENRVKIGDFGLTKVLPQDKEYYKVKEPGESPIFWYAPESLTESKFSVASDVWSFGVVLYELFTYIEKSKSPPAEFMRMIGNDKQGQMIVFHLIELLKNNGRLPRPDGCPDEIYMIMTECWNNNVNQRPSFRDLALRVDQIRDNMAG
Sequence of ROCK I (Q13464 whole entry): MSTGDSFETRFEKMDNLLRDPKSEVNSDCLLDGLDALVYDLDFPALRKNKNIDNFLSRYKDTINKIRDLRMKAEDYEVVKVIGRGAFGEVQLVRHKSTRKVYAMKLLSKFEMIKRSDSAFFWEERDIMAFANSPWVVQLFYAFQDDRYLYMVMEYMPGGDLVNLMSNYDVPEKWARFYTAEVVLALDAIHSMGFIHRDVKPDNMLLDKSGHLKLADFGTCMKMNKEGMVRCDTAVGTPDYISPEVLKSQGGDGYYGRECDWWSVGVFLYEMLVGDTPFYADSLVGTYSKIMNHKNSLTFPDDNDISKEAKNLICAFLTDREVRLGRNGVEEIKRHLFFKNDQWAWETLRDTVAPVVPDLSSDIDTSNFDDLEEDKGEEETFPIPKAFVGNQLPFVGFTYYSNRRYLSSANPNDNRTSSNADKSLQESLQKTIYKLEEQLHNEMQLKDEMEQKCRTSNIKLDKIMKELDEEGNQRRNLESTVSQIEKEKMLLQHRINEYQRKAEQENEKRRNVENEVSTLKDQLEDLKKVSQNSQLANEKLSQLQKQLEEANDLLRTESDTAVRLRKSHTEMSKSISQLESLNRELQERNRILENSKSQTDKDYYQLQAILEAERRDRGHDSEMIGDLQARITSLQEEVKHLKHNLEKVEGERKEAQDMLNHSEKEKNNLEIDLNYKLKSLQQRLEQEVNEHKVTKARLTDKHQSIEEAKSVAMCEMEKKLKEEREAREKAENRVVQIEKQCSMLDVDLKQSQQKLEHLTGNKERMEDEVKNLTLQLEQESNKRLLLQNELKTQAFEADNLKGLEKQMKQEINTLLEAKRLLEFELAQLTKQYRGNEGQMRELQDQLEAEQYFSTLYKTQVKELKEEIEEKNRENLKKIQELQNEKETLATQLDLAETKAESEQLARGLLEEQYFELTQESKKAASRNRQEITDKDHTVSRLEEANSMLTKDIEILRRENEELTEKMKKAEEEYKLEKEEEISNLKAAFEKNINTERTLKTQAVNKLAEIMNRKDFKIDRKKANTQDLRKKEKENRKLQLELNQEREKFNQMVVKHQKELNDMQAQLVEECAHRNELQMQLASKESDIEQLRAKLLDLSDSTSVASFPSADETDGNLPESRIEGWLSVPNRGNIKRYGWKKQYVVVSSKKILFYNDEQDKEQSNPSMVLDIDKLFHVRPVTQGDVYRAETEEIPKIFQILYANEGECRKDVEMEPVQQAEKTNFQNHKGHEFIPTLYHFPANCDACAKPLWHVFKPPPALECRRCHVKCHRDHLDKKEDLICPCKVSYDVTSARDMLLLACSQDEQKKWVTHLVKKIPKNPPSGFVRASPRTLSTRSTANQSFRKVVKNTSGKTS

`c1ccc(-c2ccccc2-c2ccnc3[nH]ccc23)cc1` [compound 226]: the Ki was above 4000 nM on ROCK I (setting [1]), above 5000 nM on JAK2 (setting [1]) and above 5000 nM at JAK3 (setting [1]).
Turning to `C=CCN(CC=C)C(=O)c1cc(-c2ccnc3[nH]ccc23)c[nH]1` [compound 298], the Ki at ROCK I (setting [1]), on JAK2 (setting [1]) and at JAK3 (setting [1]) was below 500 nM throughout.
As for `N#CCCN(Cc1ccccc1)C(=O)c1cc(-c2c(Cl)cnc3[nH]ccc23)c[nH]1` [compound 343], the values for the Ki at ROCK I (setting [1]), at JAK2 (setting [1]) and on JAK3 (setting [1]) were 500 to 5000 nM, below 500 nM and below 500 nM, respectively.
Take `CCCS(=O)(=O)N1CC[C@H](Nc2c(Cl)cnc3[nH]ccc23)C1` [compound 178]: the Ki on ROCK I (setting [1]) is above 4000 nM; at JAK2 (setting [1]) it was below 500 nM; at JAK3 (setting [1]) it was below 500 nM.
For `Nc1ccccc1-c1c(Cl)cnc2[nH]ccc12` [compound 129], the Ki at ROCK I (setting [2]) is 500 to 5000 nM; at JAK2 (enzyme inhibition, Table 5), above 5000 nM; on JAK3 (enzyme inhibition, Table 5) it was above 5000 nM.
For `O=C(NCC1CC1)c1cc(-c2ccnc3[nH]ccc23)c[nH]1` [compound 286], the Ki on ROCK I (setting [1]), at JAK2 (setting [1]) and on JAK3 (setting [1]) was below 500 nM in each case.
Consider `CCC1CCCCN1C(=O)c1csc(-c2ccnc3[nH]ccc23)n1` (stereo not drawn) [compound 423], for which the Ki at ROCK I (setting [1]), on JAK2 (setting [1]) and on JAK3 (setting [1]) was below 500 nM each time.
In the case of `C#CCOC(=O)N1CC[C@H](Nc2c(Cl)cnc3[nH]ccc23)C1` [compound 165], the Ki is above 4000 nM at ROCK I (setting [1]), below 500 nM on JAK2 (setting [1]) and below 500 nM at JAK3 (setting [1]).
Take `CN(CC(F)(F)F)C(=O)c1cc(-c2ccnc3[nH]ccc23)c[nH]1` [compound 376]: the Ki at ROCK I (setting [1]), at JAK2 (setting [1]) and at JAK3 (setting [1]) was below 500 nM throughout.
Regarding `O=C(c1cccc(-c2ccnc3[nH]ccc23)c1)N1CCOCC1` [compound 94, Morpholin-4-yl-[3-(1H-pyrrolo[2,3-b]pyridin-4-yl)-phenyl]-methanone], the Ki at ROCK I (setting [2]) lay within 500 to 5000 nM; on JAK2 (enzyme inhibition, Table 5), 500 to 5000 nM; on JAK3 (enzyme inhibition, Table 5), 500 to 5000 nM.
With `CCC(=O)Nc1cccc(Nc2c(Cl)cnc3[nH]ccc23)c1` [compound 155], the Ki at ROCK I (setting [1]) is above 4000 nM; on JAK2 (setting [1]), below 500 nM; at JAK3 (setting [1]), below 500 nM.
On to `O=C(NCC(F)(F)F)[C@H](CO)Nc1nc(-c2ccnc3[nH]ccc23)ncc1F` [compound 204], for which the Ki on ROCK I (setting [1]) is 500 to 5000 nM; on JAK2 (setting [1]), 500 to 5000 nM; on JAK3 (setting [1]), below 500 nM.
Take `CCN(CCC#N)C(=O)c1cc(-c2c(Cl)cnc3[nH]ccc23)c[nH]1` [compound 329]: the Ki at ROCK I (setting [1]) is 500 to 5000 nM; at JAK2 (setting [1]), below 500 nM; at JAK3 (setting [1]), below 500 nM.
For the compound `c1cc(NCc2ccc3c(c2)OCO3)nc(-c2ccnc3[nH]ccc23)c1` [compound 60, N-((Benzo[d][1,3]dioxol-6-yl)methyl)-6-(1H-pyrrolo[2,3-b]pyridin-4-yl)pyridin-2-amine], the Ki at ROCK I (setting [2]) fell in the range of 500 to 5000 nM; at JAK2 (enzyme inhibition, Table 5), 500 to 5000 nM; on JAK3 (enzyme inhibition, Table 5), 500 to 5000 nM.
Take `CCN(CCC#N)C(=O)c1ccc(-c2ccnc3[nH]ccc23)s1` [compound 314]: the Ki at ROCK I (setting [1]), on JAK2 (setting [1]) and at JAK3 (setting [1]) was below 500 nM throughout.
`C#CCNC(=O)c1cc(-c2ccnc3[nH]ccc23)c[nH]1` [compound 294]: the Ki on ROCK I (setting [1]), at JAK2 (setting [1]) and on JAK3 (setting [1]) was below 500 nM in each case.
In the case of `COc1cccc(CNc2cccc(-c3ccnc4[nH]ccc34)n2)c1` [compound 73, N-(3-Methoxybenzyl)-6-(1H-pyrrolo[2,3-b]pyridin-4-yl)pyridin-2-anine], the Ki was 500 to 5000 nM on ROCK I (setting [2]); 500 to 5000 nM on JAK2 (enzyme inhibition, Table 5); 500 to 5000 nM at JAK3 (enzyme inhibition, Table 5).
Take `CCCS(=O)(=O)N1CCCC(Nc2c(Cl)cnc3[nH]ccc23)C1` (stereo not drawn) [compound 177]: the Ki was 500 to 5000 nM on ROCK I (setting [1]), below 500 nM at JAK2 (setting [1]) and below 500 nM on JAK3 (setting [1]).
In the case of `Clc1ccccc1CCNc1cccc(-c2c(Cl)cnc3[nH]ccc23)n1` [compound 75, N-(2-Chlorophenethyl)-6-(5-chloro-1H-pyrrolo[2,3-b]pyridin-4-yl)pyridin-1-amine], the Ki was 500 to 5000 nM at ROCK I (setting [2]); 500 to 5000 nM at JAK2 (enzyme inhibition, Table 5); 500 to 5000 nM at JAK3 (enzyme inhibition, Table 5).
As for `CC(C)[C@H](C(=O)NCC(F)(F)F)n1ccc2cnc(-c3ccnc4[nH]ccc34)nc21` [compound 425], the figures for the Ki at ROCK I (setting [1]), on JAK2 (setting [1]) and at JAK3 (setting [1]) were above 4000 nM, below 500 nM and below 500 nM, respectively.
For `Clc1cnc2[nH]ccc2c1-c1cccc(NC2CCCC2)n1` [compound 32, 6-(5-Chloro-1H-pyrrolo[2,3-b]pyridin-4-yl)-N-cyclopentylpyrdin-2-anine], the Ki at ROCK I (setting [2]) is 500 to 5000 nM; at JAK2 (enzyme inhibition, Table 5) it was 500 to 5000 nM; on JAK3 (enzyme inhibition, Table 5), above 5000 nM.
Turning to `Clc1cnc2[nH]ccc2c1-c1cn[nH]c1` [compound 80, 5-Chloro-4-(1H-pyrazol-4-yl)-1H-pyrrolo[2,3b]pyridine], the Ki at ROCK I (setting [2]) was 500 to 5000 nM; on JAK2 (enzyme inhibition, Table 5), below 500 nM; at JAK3 (enzyme inhibition, Table 5) it was below 500 nM.
As to `CS(=O)(=O)N1CC[C@@H](Nc2c(Cl)cnc3[nH]ccc23)C1` [compound 184], the Ki on ROCK I (setting [1]) was 500 to 5000 nM; on JAK2 (setting [1]), below 500 nM; on JAK3 (setting [1]), below 500 nM.
As for `CC1CCCCC1Nc1c(Cl)cnc2[nH]ccc12` (stereo not drawn) [compound 153], the Ki on ROCK I (setting [1]) is 500 to 5000 nM; on JAK2 (setting [1]) it was below 500 nM; at JAK3 (setting [1]) it was below 500 nM.
As to `CN1CCCC1CCNc1cccc(-c2ccnc3[nH]ccc23)n1` (stereo not drawn) [compound 37, N-(2-(1-Methylpyrrolidin-2-yl)ethyl)-6-(1H-pyrrolo[2,3-b]pyridin-4-yl)pyridin-2-amine], the Ki on ROCK I (setting [2]) is 500 to 5000 nM; on JAK2 (enzyme inhibition, Table 5), above 5000 nM; at JAK3 (enzyme inhibition, Table 5), above 5000 nM.
Regarding `CC1CCC(C)N1C(=O)c1cc(-c2ccnc3[nH]ccc23)c[nH]1` (stereo not drawn) [compound 375], the Ki at ROCK I (setting [1]), at JAK2 (setting [1]) and on JAK3 (setting [1]) was below 500 nM throughout.
Regarding `O=S(=O)(C1CC1)N1CCCC(Nc2c(Cl)cnc3[nH]ccc23)C1` (stereo not drawn) [compound 181], the Ki was 500 to 5000 nM on ROCK I (setting [1]), below 500 nM on JAK2 (setting [1]) and below 500 nM on JAK3 (setting [1]).
With `N#Cc1ccc(Cl)cc1Nc1c(Cl)cnc2[nH]ccc12` [compound 159], the Ki at ROCK I (setting [1]) was above 4000 nM; on JAK2 (setting [1]), below 500 nM; on JAK3 (setting [1]) it was below 500 nM.
For `CCCN(CCC#N)C(=O)c1cc(-c2ccnc3[nH]ccc23)c[nH]1` [compound 302], the Ki at ROCK I (setting [1]), on JAK2 (setting [1]) and at JAK3 (setting [1]) was below 500 nM each time.
Turning to `Clc1cnc2[nH]ccc2c1C1=CCCC1` [compound 28, 5-Chloro-4-cyclopentenyl-1H-pyrrolo[2,3b]pyridine], the Ki at ROCK I (setting [2]) was 500 to 5000 nM; on JAK2 (enzyme inhibition, Table 5) it was below 500 nM; on JAK3 (enzyme inhibition, Table 5), below 500 nM.
Consider `COCCN(CCOC)C(=O)c1cc(-c2ccnc3[nH]ccc23)c[nH]1` [compound 308], for which the Ki was 500 to 5000 nM on ROCK I (setting [1]), below 500 nM at JAK2 (setting [1]) and below 500 nM at JAK3 (setting [1]).
Take `Cc1ccc(C)c(-c2ccnc3[nH]ccc23)c1` [compound 209]: the Ki is below 500 nM on ROCK I (setting [1]), above 5000 nM at JAK2 (setting [1]) and above 5000 nM at JAK3 (setting [1]).
`CC1CCCC=C1c1c(Cl)cnc2[nH]ccc12` (stereo not drawn) [compound 68]: the Ki on ROCK I (setting [2]) was 500 to 5000 nM; on JAK2 (enzyme inhibition, Table 5) it was 500 to 5000 nM; at JAK3 (enzyme inhibition, Table 5), below 500 nM.
